The record followed here is PubChem BioAssay (NCI).

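Exposure lasted 48 hours, with cells grown in 96-well plates and compounds tested at five concentrations. Here, GI50 denotes the concentration required for 50% inhibition of growth. TGI denotes the concentration required for complete inhibition of growth.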 Where only a bound is given, the exact number is not on record here.

Assay in all cases: NCI tumour cell line growth inhibition, 48 h
In test [1] the test system is SK-OV-3 ovarian.
Test [2] has as its system UO-31 renal.
The subject of test [3] is SF-268 CNS.
Test [4] has as its system A549 NSCLC.
Test [5] deals with MCF7 breast.
The subject of test [6] is K-562 leukemia.
Test [7] concerns NCI-H23 lung.
Test [8] deals with DU-145 prostate.
Test [9] concerns SW-620 colon.
Test [10] has as its system OVCAR-8 ovarian.

Take `COC(=O)c1cc2c(cc1Cl)SC(N(N(C)C)S(=O)(=O)c1ccc(Cl)cc1)=NS2(=O)=O`: the GI50 in test [1] is 17.9 µM; in test [2], 25.3 µM; in [3], 20.1 µM; in [4], 17.2 µM; in test [5] it was 17 µM; in test [6], 11.3 µM. In addition, the GI50 is 19.7 µM in test [7], 13.7 µM in test [8] and 14.3 µM in test [9]. Moreover, the TGI in test [1] was 49.2 µM; in test [2] it was above 100 µM; in [3], 45.5 µM; in [4] it was above 100 µM; in test [5], 34.8 µM; in test [6], 23.8 µM. Besides, the TGI in test [7] is 43.5 µM; in test [8] it was 26.6 µM; in test [9] it was 27.4 µM.

In the case of `CCOC(=O)c1cnc2c(cnn2CC)c1NN=C(C)C`, the GI50 is 55.7 µM in test [1]; 23.2 µM in test [2]; 38.9 µM in test [3]; 40.1 µM in [4]; 90.4 µM in test [5]; 59.6 µM in test [6]. In addition, the GI50 in [10] was 55.1 µM; in [7] it was above 100 µM; in [8] it was 29.5 µM; in test [9] it was 83.8 µM. In addition, the TGI in test [1], in [2], in test [3], in [4], in [5] and in test [6] was above 100 µM throughout. Moreover, the TGI in test [10], in [7], in test [8] and in test [9] was above 100 µM in each case.

In the case of `C=C1C(=O)O[C@H]2[C@H]1CC(=O)/C(C)=C\CC[C@@]1(C)O[C@@H]21`, the GI50 in test [1] was 7.86 µg/mL; in test [2] it was 2.61 µg/mL; in test [3], 4.15 µg/mL; in test [4], 5.21 µg/mL; in test [5], 1.77 µg/mL; in test [6], 0.842 µg/mL. In addition, the GI50 was 3.98 µg/mL in test [10], 3.94 µg/mL in test [7], 3.44 µg/mL in [8] and 1.06 µg/mL in test [9]. The TGI in test [1] came out at 17.4 µg/mL; in test [2] it was 5.85 µg/mL; in test [3] it was 9.58 µg/mL; in [4] it was 11.3 µg/mL; in test [5], 10.1 µg/mL; in test [6], 4.15 µg/mL. In addition, the TGI in [10] turned out to be 7.81 µg/mL; in [7] it was 8.18 µg/mL; in test [8], 7.11 µg/mL; in test [9], 6.15 µg/mL.

In the case of `C#CC#CC#CC#CC#CC#CC#CC#CCC1OC[C@H](COC(=O)O[C@@H](C(=O)O[C@H]2C[C@@]3(O)[C@@H](OC(=O)c4ccccc4)[C@@H]4[C@]5(OC(C)=O)CO[C@@H]5C[C@H](O)[C@@]4(C)C(=O)[C@H](OC(C)=O)C(=C2C)C3(C)C)[C@@H](NC(=O)c2ccccc2)c2ccccc2)O1` (stereo partly drawn), the GI50 in [1] is 1.38 µM; in test [2] it was above 33.3 µM; in [3] it was 0.992 µM; in test [4], 0.295 µM; in [5] it was 0.0921 µM; in test [6], 0.255 µM. Also, the GI50 was 0.561 µM in [10], 0.888 µM in [7], 0.228 µM in test [8] and 0.261 µM in test [9]. Moreover, the TGI in test [1], in [2], in test [3], in test [4], in test [5] and in [6] was above 33.3 µM throughout. Besides, the TGI in [10], in [7], in [8] and in test [9] was above 33.3 µM in each case.

On to `Nc1c(O)c(S(=O)(=O)O)c(O)c2c1C(=O)c1ccccc1C2=O`, for which the GI50 is 1.98 µM in test [1]; 2.47 µM in test [2]; 3.44 µM in [3]; 2.9 µM in [4]; 2.5 µM in [5]; 3.13 µM in [6]. Moreover, the GI50 is 2.98 µM in test [10], 2.82 µM in test [7], 3.8 µM in test [8] and 3.24 µM in test [9]. The TGI in test [1] is 5.36 µM; in test [2] it was 9.13 µM; in [3] it was above 100 µM; in test [4], 12 µM; in test [5] it was 8.13 µM; in test [6] it was 13.9 µM. The TGI is 13.4 µM in test [10], 9.88 µM in test [7], above 100 µM in test [8] and above 100 µM in test [9].

On to `O=C1C=C(Nc2nc(C(=O)O)cc(=O)[nH]2)c2ccccc2C1=O`, for which the TGI in test [1], in test [2], in [3], in [4], in test [5] and in [6] was above 100 µM in each case. The TGI in test [10], in [7], in test [8] and in test [9] was above 100 µM throughout.

For the compound `CC12CCC(O)CC1CCC1C2CCC2(C)C(C3=CC(=O)OC3)CCC12` (stereo not drawn), the GI50 is 21.8 µM in [1]; above 100 µM in test [2]; 5.17 µM in test [3]; 21.8 µM in test [4]; above 100 µM in [5]; above 100 µM in test [6]. The GI50 in [10] was 16.9 µM; in test [7], 5.81 µM; in [8], 42.4 µM; in [9] it was above 100 µM. For the same compound, the TGI is above 61.5 µM in test [1]; above 100 µM in test [2]; above 41.8 µM in test [3]; above 100 µM in [4]; above 100 µM in [5]; above 100 µM in test [6]. Moreover, the TGI is above 100 µM in test [10], above 64.6 µM in [7], above 100 µM in test [8] and above 100 µM in [9].

Turning to `c1ccc2c(c1)ccc1c3ccccc3ccc21`, the GI50 in test [1], in test [2], in [3], in test [4], in test [5] and in [6] was above 50 µM throughout. Further, the GI50 in test [10], in test [7], in test [8] and in test [9] was above 50 µM in each case. For the same compound, the TGI in test [1], in [2], in test [3], in test [4], in test [5] and in test [6] was above 50 µM each time. Moreover, the TGI in [10], in [7], in test [8] and in test [9] was above 50 µM each time.
